From patent publication US20110269680A1 (PANACEA BIOTEC LIMITED, priority 2008, published 2011) come the findings set out here.

SMILES strings stand for the structures. Read-outs that look alike come from different tables or passages of the source. Numbered stars: 1 amine (or outer) side, 2 acyl side, 3 side chain; on linkers, the order of the positions; unused ones are H or OH. Square brackets hold non-standard residues; d marks the D form. Peptide text beside a SMILES is read from it. X1 = CO[C@H]1O[C@H](C(=O)[*:2])[C@@H](O)[C@H](O)[C@H]1N[*:1]; 2Furoyl(5-aminomethyl) = O=C(c1ccc(CN[*:1])o1)[*:2]; Aib = CC(C)(N)C(=O)O

For data set [1], the target named is T1, GLP-1R (Homo sapiens, UniProt P43220).
T1 construct: expressed in transfected cells; host or cells: CHO/GLP-1R cells
The data set is described as follows: In vitro receptor functional assay (cAMP) in CHO/GLP-1R cells. It is filed as cell-based. The settings on record: intracellular cAMP, 30 min with 1 mM IBMX. The source says: cAMP is a ubiquitous cellular second messenger that is critical component of a signal transduction pathway linking membrane receptors and their ligands to the activation of internal cellular enzymatic activity and gene expression. cAMP is synthesized from ATP by membrane bound adenylate cyclase in a very regulated manner. In its simpler form, binding of a ligand, such as hormone or drug, to its specific G protein coupled receptor can either stimulate or inhibit adenylate cyclase depending on the GPCR being activated. […] Therefore the relative concentration of cAMP serves as a means to monitor the activity of GPCRs at the cell surface.
CHO/GLP-1R Cell Culture—CHO/GLP-1R Cells were maintained in Ham's F-12 medium containing 10% Fetal bovine serum and 1% penicillin-streptomycin antibiotic solution at 37° C. in a 5% CO2 incubator.
Cells were washed twice with PBS (pH-7.2) and incubated with 100 μl Ham's F-12 serum free medium supplemented with 0.1% BSA for 2 hr at 37° C. in 5% CO2 incubator. Cells were then incubated in 100 μl Ham's F-12 serum free medium supplemented with 0.1% BSA with 1 mM IBMX in the presence as well as absence of the peptides as per present invention in different concentration (10 nM, 1 nM, 100 pM & 10 pM). The reaction was stopped 30 min later by washing the intact cells three times with ice cold PBS (pH-7.2). The intracellular cAMP was extracted by incubating the cells in 100 μl 0.1N HCl at room temperature for 20 minutes. Mixture was dissociated by pipetting up and down until the suspension became homogenous, transferred to centrifuge tube and centrifuged at 800 rpm for 10 minutes.
Dissolved 5 pNPP tablets in 25 ml DEA buffer. Wells were emptied and washed five times with wash buffer and added 200 μl pNPP solution to each well, plate was covered and allowed to develop in dark for 90 minutes.

Data set [2] addresses T2, DPP-IV (Homo sapiens, UniProt P27487).
T2 construct: purchased Sigma-Aldrich
The data set is described as follows: DPP-IV resistant assay. The data set is classed as in vitro ADME. As to the method: 20 μM of peptides of the present invention (Sequence IDs—01, 02, 03, 04, 05, 06, 11, 12 and 13) were incubated with 60 mU/2 ml of DPP-IV (Sigma-Aldrich) enzyme at room temperature (22-24° C.) in 20 mM Tris HCl buffer, pH 8.0. The aliquots were analyzed for the amount of undegraded peptide concentration at different time intervals by RP-HPLC. The peak area integration was used to determine the amount of undegraded peptide (U.S. Pat. No. 7,067,488). T1/2 of each peptide was determined from the graph plotted between peak area of undegraded peptide vs. time. The peak area of DPP-IV untreated peptide in above mentioned buffer condition of same concentration was considered as time zero. […]

In data set [3] the target is T3, NEP 24.11 (Homo sapiens, UniProt P08473).
T3 construct: purchased Calbiochem
Briefly: NEP 24.11 resistant (degradation) assay. The settings on record: for half-life at 20 μM: buffer. The data set is classed as in vitro ADME. As to the method: The aliquots were analyzed for the amount of undegraded peptide concentration at different time intervals using RP-HPLC by peak area integration. T1/2 of each peptide was determined from the graph plotted between peak area of undegraded peptide vs time.

T2 sequence (P27487 whole entry, species assumed): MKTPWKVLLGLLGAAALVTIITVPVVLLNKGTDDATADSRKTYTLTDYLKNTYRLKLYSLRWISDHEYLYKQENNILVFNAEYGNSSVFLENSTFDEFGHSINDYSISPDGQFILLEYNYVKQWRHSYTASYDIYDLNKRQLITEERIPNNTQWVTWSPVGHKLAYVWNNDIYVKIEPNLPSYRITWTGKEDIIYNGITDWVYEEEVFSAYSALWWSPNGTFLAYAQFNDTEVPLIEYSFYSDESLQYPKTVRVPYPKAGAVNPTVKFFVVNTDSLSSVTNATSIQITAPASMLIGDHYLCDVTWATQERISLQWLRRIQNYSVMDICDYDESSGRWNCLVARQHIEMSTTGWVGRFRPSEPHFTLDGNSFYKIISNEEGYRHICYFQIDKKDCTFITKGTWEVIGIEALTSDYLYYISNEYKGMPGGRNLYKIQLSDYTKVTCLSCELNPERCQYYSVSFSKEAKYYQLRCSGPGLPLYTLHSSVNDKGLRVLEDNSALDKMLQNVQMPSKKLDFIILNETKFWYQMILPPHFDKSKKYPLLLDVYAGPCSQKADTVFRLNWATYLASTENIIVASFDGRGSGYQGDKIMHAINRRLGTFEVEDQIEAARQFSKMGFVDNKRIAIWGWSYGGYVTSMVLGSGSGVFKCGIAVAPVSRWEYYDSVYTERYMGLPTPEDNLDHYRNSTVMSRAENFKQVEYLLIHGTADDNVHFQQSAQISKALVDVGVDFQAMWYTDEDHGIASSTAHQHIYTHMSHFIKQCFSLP
T1 sequence (P43220 24-463, species assumed): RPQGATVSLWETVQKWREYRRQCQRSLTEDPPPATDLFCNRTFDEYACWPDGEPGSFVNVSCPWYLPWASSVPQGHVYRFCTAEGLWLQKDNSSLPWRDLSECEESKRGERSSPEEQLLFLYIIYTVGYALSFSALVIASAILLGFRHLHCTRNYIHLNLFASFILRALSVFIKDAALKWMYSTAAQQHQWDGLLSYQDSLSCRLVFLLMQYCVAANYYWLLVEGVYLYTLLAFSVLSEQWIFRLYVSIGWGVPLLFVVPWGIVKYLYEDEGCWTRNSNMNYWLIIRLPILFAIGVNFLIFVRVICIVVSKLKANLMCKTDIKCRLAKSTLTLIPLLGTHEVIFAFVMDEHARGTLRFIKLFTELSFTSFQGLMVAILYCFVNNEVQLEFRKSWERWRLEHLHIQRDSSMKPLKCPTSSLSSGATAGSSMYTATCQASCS
T3 sequence (P08473 whole entry): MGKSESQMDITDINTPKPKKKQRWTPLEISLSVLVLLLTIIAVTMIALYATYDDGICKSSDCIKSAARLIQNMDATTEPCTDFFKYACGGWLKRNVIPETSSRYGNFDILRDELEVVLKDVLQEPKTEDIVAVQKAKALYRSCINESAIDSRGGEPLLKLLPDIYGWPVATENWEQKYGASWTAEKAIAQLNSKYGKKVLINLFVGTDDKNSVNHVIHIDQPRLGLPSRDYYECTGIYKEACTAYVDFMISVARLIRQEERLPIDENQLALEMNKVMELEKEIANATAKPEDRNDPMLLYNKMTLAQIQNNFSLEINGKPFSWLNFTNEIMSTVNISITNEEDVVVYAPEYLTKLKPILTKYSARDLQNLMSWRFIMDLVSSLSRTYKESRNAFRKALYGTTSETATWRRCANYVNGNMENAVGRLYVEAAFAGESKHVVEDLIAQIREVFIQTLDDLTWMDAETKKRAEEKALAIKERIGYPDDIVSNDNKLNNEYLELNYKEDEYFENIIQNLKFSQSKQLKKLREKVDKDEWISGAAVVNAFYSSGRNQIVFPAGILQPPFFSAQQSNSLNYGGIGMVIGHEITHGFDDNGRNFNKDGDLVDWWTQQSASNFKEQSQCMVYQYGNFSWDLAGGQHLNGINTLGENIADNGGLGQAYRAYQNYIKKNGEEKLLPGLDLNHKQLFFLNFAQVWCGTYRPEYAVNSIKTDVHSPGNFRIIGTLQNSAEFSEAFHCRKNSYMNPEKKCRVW

In data set [1], `CC[C@H](C)[C@H](NC(=O)[C@H](Cc1ccccc1)NC(=O)[C@H](CCC(=O)O)NC(=O)[C@H](CCCCN)NC(=O)[C@H](C)NC(=O)[C@H](C)NC(=O)[C@H](CCC(N)=O)NC(=O)CNC(=O)[C@H](CCC(=O)O)NC(=O)[C@H](CC(C)C)NC(=O)[C@H](Cc1ccc(O)cc1)NC(=O)[C@H](CO)NC(=O)[C@H](CO)NC(=O)[C@@H](NC(=O)[C@H](CC(=O)O)NC(=O)[C@H](CO)NC(=O)[C@@H](NC(=O)[C@H](Cc1ccccc1)NC(=O)[C@@H](NC(=O)CNC(=O)c1ccc(CNC(=O)[C@@H](N)Cc2c[nH]cn2)o1)[C@@H](C)O)[C@@H](C)O)C(C)C)C(=O)N[C@@H](C)C(=O)N[C@@H](Cc1c[nH]c2ccccc12)C(=O)N[C@@H](CC(C)C)C(=O)N[C@H](C(=O)N[C@@H](CCCCN)C(=O)NCC(=O)N[C@@H](CCCNC(=N)N)C(N)=O)C(C)C` [Seq ID No. 08] gave an EC50 of 0.601 nM.

`CC[C@H](C)[C@H](NC(=O)[C@H](Cc1ccccc1)NC(=O)[C@H](CCC(=O)O)NC(=O)[C@H](CCCCN)NC(=O)[C@H](C)NC(=O)[C@H](C)NC(=O)[C@H](CCC(N)=O)NC(=O)CNC(=O)[C@H](CCC(=O)O)NC(=O)[C@H](CC(C)C)NC(=O)[C@H](Cc1ccc(O)cc1)NC(=O)[C@H](CO)NC(=O)[C@H](CO)NC(=O)C(C)(C)NC(=O)[C@H](CC(=O)O)NC(=O)[C@H](CO)NC(=O)[C@@H](NC(=O)[C@H](Cc1ccccc1)NC(=O)[C@@H](NC(=O)CNC(=O)[C@H](CCC(=O)O)NC(=O)c1ccc(CNC(=O)[C@@H](N)Cc2c[nH]cn2)o1)[C@@H](C)O)[C@@H](C)O)C(=O)NC(C)(C)C(=O)N[C@@H](Cc1c[nH]c2ccccc12)C(=O)N[C@@H](CC(C)C)C(=O)N[C@H](C(=O)N[C@@H](CCCCN)C(=O)NCC(=O)N[C@@H](CCCNC(=N)N)C(=O)NCC(N)=O)C(C)C` [Seq ID No. 09] (H-H[2Furoyl(5-aminomethyl)]EGTFTSD[Aib]SSYLEGQAAKEFI[Aib]WLVKGRG-NH2) gave an EC50 in data set [1] of 1 nM.

In the case of `CC[C@H](C)[C@H](NC(=O)[C@H](Cc1ccccc1)NC(=O)[C@H](CC(C)C)NC(=O)[C@H](CCCCN)NC(=O)[C@H](C)NC(=O)[C@H](C)NC(=O)[C@H](CCC(N)=O)NC(=O)CNC(=O)[C@H](CCC(=O)O)NC(=O)[C@H](CCC(N)=O)NC(=O)[C@H](Cc1ccc(O)cc1)NC(=O)[C@H](CO)NC(=O)[C@H](CC(C)C)NC(=O)[C@@H](NC(=O)[C@H](CC(=O)O)NC(=O)[C@H](CO)NC(=O)[C@@H](NC(=O)[C@H](Cc1ccccc1)NC(=O)[C@@H](NC(=O)CNC(=O)[C@H]1O[C@H](OC)[C@H](NC(=O)[C@@H](N)Cc2c[nH]cn2)[C@@H](O)[C@@H]1O)[C@@H](C)O)[C@@H](C)O)C(C)C)C(=O)N[C@@H](CCC(=O)O)C(=O)N[C@@H](Cc1c[nH]c2ccccc12)C(=O)N[C@@H](CC(C)C)C(=O)N[C@H](C(=O)N[C@@H](CCCCN)C(=O)NCC(=O)N[C@@H](CCCNC(=N)N)C(N)=O)C(C)C` [Seq ID No. 12] (H-H[X1]GTFTSDVLSYQEGQAAKLFIEWLVKGR-NH2; N-terminus assumed), in data set [2], the “Percentage degradation in hrs” value came to 24.93%. Also, the half-life at 20 μM in data set [2] (pH 8) was more than 24 h; in data set [3] (20 μM peptide, 1 mg/ml NEP 24.11, 37° C., 50 mM Hepes, 50 mM NaCl, pH 7.4, RP-HPLC, read-out: T1/2 (converted)) it was 27.5 h. Further, in data set [3] (isolated NEP 24.11 enzyme (Calbiochem), pH 7.4, NEP 24.11, after 54 hrs, read-out: % Degradation (after 54 hrs)), the metabolised at 54 h, 20 μM was 93.5%.

Turning to `CC[C@H](C)[C@H](NC(=O)[C@H](Cc1ccccc1)NC(=O)[C@H](CCC(=O)O)NC(=O)[C@H](CCCCN)NC(=O)[C@H](C)NC(=O)[C@H](C)NC(=O)[C@H](CCC(N)=O)NC(=O)CNC(=O)[C@H](CCC(=O)O)NC(=O)[C@H](CC(C)C)NC(=O)[C@H](Cc1ccc(O)cc1)NC(=O)[C@H](CO)NC(=O)[C@H](CO)NC(=O)[C@@H](NC(=O)[C@H](CC(=O)O)NC(=O)[C@H](CO)NC(=O)[C@@H](NC(=O)[C@H](Cc1ccccc1)NC(=O)[C@@H](NC(=O)CNC(=O)[C@H](CCC(=O)O)NC(=O)c1ccc(CNC(=O)[C@@H](N)Cc2c[nH]cn2)o1)[C@@H](C)O)[C@@H](C)O)C(C)C)C(=O)N[C@@H](C)C(=O)N[C@@H](Cc1c[nH]c2ccccc12)C(=O)N[C@@H](CC(C)C)C(=O)N[C@H](C(=O)N[C@@H](CCCCN)C(=O)NC(C)(C)C(=O)N[C@@H](CCCNC(=N)N)C(N)=O)C(C)C` [Seq ID No. 11], in data set [2] (20 μM peptide, 60 mU/2 ml DPP-IV, room temperature (22-24° C.), 20 mM Tris HCl pH 8.0, RP-HPLC, read-out: T1/2 in Hrs), the half-life at 20 μM is more than 24 h. Further, in data set [2] (DPP-IV, in 24 hrs), the “Percentage degradation in hrs” value is given as 20%. Also, in data set [2] (versus GLP-1(7-37) parent and GLP-1(7-36) parent), the “half life against DPP-IV compared with parent GLP-1 molecules” value is on record as “better half lives than the parent GLP-1 molecules”.

The molecule `CC[C@H](C)[C@H](NC(=O)[C@H](Cc1ccccc1)NC(=O)[C@H](CCC(=O)O)NC(=O)[C@H](CCCCN)NC(=O)[C@H](C)NC(=O)[C@H](C)NC(=O)[C@H](CCC(N)=O)NC(=O)CNC(=O)[C@H](CCC(=O)O)NC(=O)[C@H](CC(C)C)NC(=O)[C@H](Cc1ccc(O)cc1)NC(=O)[C@H](CO)NC(=O)[C@H](CO)NC(=O)[C@@H](NC(=O)[C@H](CC(=O)O)NC(=O)[C@H](CO)NC(=O)[C@@H](NC(=O)[C@H](Cc1ccccc1)NC(=O)[C@@H](NC(=O)CNC(=O)[C@H]1O[C@H](OC)[C@H](NC(=O)[C@@H](N)Cc2c[nH]cn2)[C@@H](O)[C@@H]1O)[C@@H](C)O)[C@@H](C)O)C(C)C)C(=O)N[C@@H](C)C(=O)N[C@@H](Cc1c[nH]c2ccccc12)C(=O)N[C@@H](CC(C)C)C(=O)N[C@H](C(=O)N[C@@H](CCCCN)C(=O)NCC(=O)N[C@@H](CCCNC(=N)N)C(N)=O)C(C)C` [Seq ID No. 07] showed an EC50 in data set [1] of 0.056 nM.

With `CC[C@H](C)[C@H](NC(=O)[C@H](Cc1ccccc1)NC(=O)[C@H](CCC(=O)O)NC(=O)[C@H](CCCCN)NC(=O)[C@H](C)NC(=O)[C@H](C)NC(=O)[C@H](CCC(N)=O)NC(=O)CNC(=O)[C@H](CCC(=O)O)NC(=O)[C@H](CC(C)C)NC(=O)[C@H](Cc1ccc(O)cc1)NC(=O)[C@H](CO)NC(=O)[C@H](CO)NC(=O)[C@@H](NC(=O)[C@H](CC(=O)O)NC(=O)[C@H](CO)NC(=O)[C@@H](NC(=O)[C@H](Cc1ccccc1)NC(=O)[C@@H](NC(=O)CNC(=O)[C@H](CCC(=O)O)NC(=O)[C@H](C)NC(=O)[C@@H](N)Cc1c[nH]cn1)[C@@H](C)O)[C@@H](C)O)C(C)C)C(=O)N[C@@H](C)C(=O)N[C@@H](Cc1c[nH]c2ccccc12)C(=O)N[C@@H](CC(C)C)C(=O)N[C@H](C(=O)N[C@@H](CCCCN)C(=O)NCC(=O)N[C@@H](CCCNC(=N)N)C(N)=O)C(C)C` [GLP-1(7-36) parent, GLP-1(7-36), reference compound], the metabolised at 54 h, 20 μM in data set [3] (isolated enzyme neprilysin, pH 7.4, NEP 24.11, after 54 hrs, read-out: % Degradation (after 54 hrs)) worked out at 98.3%.

Regarding `CC[C@H](C)[C@H](NC(=O)[C@H](Cc1ccccc1)NC(=O)[C@H](CCC(=O)O)NC(=O)[C@H](CCCCN)NC(=O)[C@H](C)NC(=O)[C@H](C)NC(=O)[C@H](CCC(N)=O)NC(=O)CNC(=O)[C@H](CCC(=O)O)NC(=O)[C@H](CC(C)C)NC(=O)[C@H](Cc1ccc(O)cc1)NC(=O)[C@H](CO)NC(=O)[C@H](CO)NC(=O)C(C)(C)NC(=O)[C@H](CC(=O)O)NC(=O)[C@H](CO)NC(=O)[C@@H](NC(=O)[C@H](Cc1ccccc1)NC(=O)[C@@H](NC(=O)CNC(=O)[C@H](CCC(=O)O)NC(=O)c1ccc(CNC(=O)[C@@H](N)Cc2c[nH]cn2)o1)[C@@H](C)O)[C@@H](C)O)C(=O)NC(C)(C)C(=O)N[C@@H](Cc1c[nH]c2ccccc12)C(=O)N[C@@H](CC(C)C)C(=O)N[C@H](C(=O)N[C@@H](CCCCN)C(=O)NCC(=O)N[C@@H](CCCNC(=N)N)C(N)=O)C(C)C` [Seq ID No. 04] (H-H[2Furoyl(5-aminomethyl)]EGTFTSD[Aib]SSYLEGQAAKEFI[Aib]WLVKGR-NH2; N-terminus assumed), the “Percentage degradation in hrs” value in data set [2] came to 12.87%. Besides, the half-life at 20 μM is more than 24 h in data set [2] (pH 8) and more than 56 h in data set [3] (pH 7.4). Moreover, in data set [3] (isolated enzyme neprilysin, pH 7.4), the metabolised at 54 h, 20 μM is 26%.
